Some results are limits rather than exact numbers.

Sequence of N-terminally GST-tagged HCK (75-526) (P08631 75-526): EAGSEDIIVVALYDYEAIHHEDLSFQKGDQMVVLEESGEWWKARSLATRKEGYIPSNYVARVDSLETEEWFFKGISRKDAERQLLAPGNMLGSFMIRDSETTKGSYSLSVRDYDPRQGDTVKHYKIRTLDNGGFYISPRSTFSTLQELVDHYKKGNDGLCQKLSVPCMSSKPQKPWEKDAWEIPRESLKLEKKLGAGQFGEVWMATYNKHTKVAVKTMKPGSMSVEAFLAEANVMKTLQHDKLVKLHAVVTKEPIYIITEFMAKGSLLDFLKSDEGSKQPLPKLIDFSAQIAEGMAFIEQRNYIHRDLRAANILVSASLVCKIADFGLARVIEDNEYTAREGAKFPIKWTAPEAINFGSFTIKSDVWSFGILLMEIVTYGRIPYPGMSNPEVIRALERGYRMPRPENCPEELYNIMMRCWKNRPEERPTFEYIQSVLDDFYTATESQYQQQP

The assay has as its target N-terminally GST-tagged HCK (75-526) (Homo sapiens (Human), UniProt P08631). Put plainly: HCK Kinase Assay (ProFluor Src-Family Kinase Assay). The assay is classed as biochemical. The following applies: HCK inhibitory activity, 50 μM ATP; read-out: HCK Activity. Put shortly: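 ProFluor Src-family format: after the kinase reaction, protease solution was added for 60 min at room temperature (22-25° C), then stabilizer.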
For `CN1CCN([C@H]2CC[C@H](n3cc(-c4ccc(Oc5ccccc5)cc4)c4c(O)ncnc43)CC2)CC1` [Example 87, 7-((trans)-4-(4-Methylpiperazin-1-yl)cyclohexyl)-5-(4-phenoxyphenyl)-7H-pyrrolo[2,3-d]pyrimidin-4-ol], the IC50 was less than 50 nM.
For the molecule `CC(C)(O)CN1CCN([C@H]2CC[C@H](n3cc(-c4ccc(Oc5ccccc5)cc4)c4c(N)ncnc43)CC2)CC1` [Example 89, 1-(4-((trans)-4-(4-amino-5-(4-phenoxyphenyl)-7H-pyrrolo[2,3-d]pyrimidin-7-yl)cyclohexyl)piperazin-1-yl)-2-methylpropan-2-ol], the IC50 was less than 50 nM.
As to `Nc1ncnc2c1c(-c1ccc(Oc3ccccc3)cc1)cn2[C@H]1CC[C@H](N2CCNCC2=O)CC1` [Example 90, 1-((trans)-4-(4-Amino-5-(4-phenoxyphenyl)-7H-pyrrolo[2,3-d]pyrimidin-7-yl)cyclohexyl)piperazin-2-one], the IC50 is less than 50 nM.
Take `Nc1ncnc2c1c(-c1ccc(Oc3ccccc3)cc1)cn2[C@H]1CC[C@@H](N2CCNCC2=O)CC1` [Example 91, 1-((cis)-4-(4-Amino-5-(4-phenoxyphenyl)-7H-pyrrolo[2,3-d]pyrimidin-7-yl)cyclohexyl)piperazin-2-one]: the IC50 fell in the range of 50 to 250 nM.
For `Nc1ncnc2c1c(-c1ccc(Oc3ccccc3)cc1)cn2C1CCC2(CC1)OCC(N)CO2` (stereo not shown) [Example 92, 7-(3-Amino-1,5-dioxaspiro[5.5]undecan-9-yl)-5-(4-phenoxyphenyl)-7H-pyrrolo [2,3-d]pyrimidin-4-amine], the IC50 lay within 50 to 250 nM.
For `Nc1ncnc2c1c(-c1ccc(Oc3ccccc3)cc1)cn2C1CCC2(CC1)NC(=O)N(c1ccncc1)C2=O` (stereo not shown) [Example 93, 8-(4-Amino-5-(4-phenoxyphenyl)-7H-pyrrolo[2,3-d]pyrimidin-7-yl)-3-(pyridin-4-yl)-1,3-diazaspiro [4.5] decane-2,4-dione] the value was 50 to 250 nM; for `NC(=O)C=C1CCC(n2cc(-c3ccc(Oc4ccccc4)cc3)c3c(N)ncnc32)CC1` (stereo not shown) [Example 94, 2-(4-(4-Amino-5-(4-phenoxyphenyl)-7H-pyrrolo[2,3-d]pyrimidin-7-yl)cyclohexylidene)acetamide], less than 50 nM; for `COC(=O)CC1(N)CCC(n2cc(-c3ccc(Oc4ccccc4)cc3)c3c(N)ncnc32)CC1` (stereo not shown) [Example 95, Methyl 2-(1-amino-4-(4-amino-5-(4-phenoxyphenyl)-7H-pyrrolo[2,3-d]pyrimidin-7-yl)cyclohexyl) acetate], 250 to 10000 nM.
With `NC(=O)CC1(N)CCC(n2cc(-c3ccc(Oc4ccccc4)cc3)c3c(N)ncnc32)CC1` (stereo not shown) [Example 96, 2-(1-Amino-4-(4-amino-5-(4-phenoxyphenyl)-7H-pyrrolo[2,3-d]pyrimidin-7-yl)cyclohexyl)acetamide] the figure was less than 50 nM; with `CNC(=O)C=C1CCC(n2cc(-c3ccc(Oc4ccccc4)cc3)c3c(N)ncnc32)CC1` (stereo not shown) [Example 97, 2-(4-(4-amino-5-(4-phenoxyphenyl)-7H-pyrrolo[2,3-d]pyrimidin-7-yl)cyclohexylidene)-N-methylacetamide], less than 50 nM.
With `CNC(=O)CC1(NC)CCC(n2cc(-c3ccc(Oc4ccccc4)cc3)c3c(N)ncnc32)CC1` (stereo not shown) [Example 98, 2-(4-(4-amino-5-(4-phenoxyphenyl)-7H-pyrrolo[2,3-d]pyrimidin-7-yl)-1-(methylamino)cyclohexyl)-N-methylacetamide] the figure was less than 50 nM.
Consider `CCOC(=O)C1CC12CCC(n1cc(-c3ccc(Oc4ccccc4)cc3)c3c(N)ncnc31)CC2` (stereo not shown) [Example 99, Ethyl 6-(4-amino-5-(4-phenoxyphenyl)-7H-pyrrolo[2,3-d]pyrimidin-7-yl)spiro[2.5]octane-1-carboxylate], for which the IC50 is less than 50 nM.
Consider `CN1CCN(CC2(O)CCC(n3cc(-c4ccc(Oc5ccccc5)cc4)c4c(N)ncnc43)CC2)CC1` (stereo not shown) [Example 100, 4-(4-Amino-5-(4-phenoxyphenyl)-7H-pyrrolo[2,3-d]pyrimidin-7-yl)-1-((4-methylpiperazin-1-yl)methyl)cyclohexanol], for which the IC50 is 50 to 250 nM.
Consider `Nc1ncnc2c1c(-c1ccc(Oc3ccccc3)cc1)cn2C1CCC(O)(Cn2ccnc2)CC1` (stereo not shown) [Example 101, 1-((1H-Imidazol-1-yl)methyl)-4-(4-amino-5-(4-phenoxyphenyl)-7H-pyrrolo[2,3-d]pyrimidin-7-yl)cyclohexanol], for which the IC50 lay in the range of 50 to 250 nM.
In the case of `Nc1ncnc2c1c(-c1ccc(Oc3ccccc3)cc1)cn2C1CCC(O)(Cn2cnnn2)CC1` (stereo not shown) [Example 102, 1-((1H-Tetrazol-1-yl)methyl)-4-(4-amino-5-(4-phenoxyphenyl)-7H-pyrrolo[2,3-d]pyrimidin-7-yl)cyclohexanol], the IC50 is less than 50 nM.
For `CN1CCN([C@H]2CC[C@H](n3cc(-c4ccc(Oc5ccccc5)cc4F)c4c(N)ncnc43)CC2)CC1` [Example 105, 5-(2-fluoro-4-phenoxyphenyl)-7-((trans)-4-(4-methylpiperazin-1-yl)cyclohexyl)-7H-pyrrolo[2,3-d]pyrimidin-4-amine] the value was less than 50 nM; for `CN1CCN([C@H]2CC[C@H](n3cc(-c4ccc(Oc5ccccc5)cc4Cl)c4c(N)ncnc43)CC2)CC1` [Example 106, 5-(2-chloro-4-phenoxyphenyl)-7-((trans)-4-(4-methylpiperazin-1-yl)cyclohexyl)-7H-pyrrolo[2,3-d]pyrimidin-4-amine], less than 50 nM.
For `CN1CCN([C@H]2CC[C@H](n3nc(-c4c(F)cc(Oc5ccccc5)cc4F)c4c(N)ncnc43)CC2)CC1` [Example 107, 3-(2,6-difluoro-4-phenoxyphenyl)-1-((trans)-4-(4-methylpiperazin-1-yl)cyclohexyl)-1H-pyrazolo[3,4-d]pyrimidin-4-amine] the value was less than 50 nM; for `CN1CCN([C@H]2CC[C@H](n3cc(-c4ccc(Oc5ccccc5F)cc4)c4c(N)ncnc43)CC2)CC1` [Example 108, 5-(4-(2-fluorophenoxy)phenyl)-7-((trans)-4-(4-methylpiperazin-1-yl)cyclohexyl)-7H-pyrrolo[2,3-d]pyrimidin-4-amine], less than 50 nM.
For `CN1CCN([C@H]2CC[C@H](n3cc(-c4ccc(Oc5c(F)cccc5F)cc4)c4c(N)ncnc43)CC2)CC1` [Example 109, 5-(4-(2,6-difluorophenoxy)phenyl)-7-((trans)-4-(4-methylpiperazin-1-yl)cyclohexyl)-7H-pyrrolo[2,3-d]pyrimidin-4-amine] the value was less than 50 nM; for `COc1cc(-c2nn([C@H]3CC[C@H](N4CCN(C)CC4)CC3)c3ncnc(N)c23)ccc1Oc1ccccc1` [Example 110], less than 50 nM.
Take `Cc1ccc(Oc2ccc(-c3cn([C@H]4CC[C@H](N5CCN(C)CC5)CC4)c4ncnc(N)c34)cc2)cc1` [Example 111, 7-((trans)-4-(4-methylpiperazin-1-yl)cyclohexyl)-5-(4-(p-tolyloxy)phenyl)-7H-pyrrolo[2,3-d]pyrimidin-4-amine]: the IC50 was in the range of 50 to 250 nM.
`CN1CCN([C@H]2CC[C@H](n3cc(-c4ccc(Oc5ccccc5C#N)cc4)c4c(N)ncnc43)CC2)CC1` [Example 112, 2-(4-(4-amino-7-((trans)-4-(4-methylpiperazin-1-yl)cyclohexyl)-7H-pyrrolo[2,3-d]pyrimidin-5-yl)phenoxy)benzonitrile]: the IC50 is less than 50 nM.
For the molecule `CN1CCN([C@H]2CC[C@H](n3cc(-c4ccc(C(=O)c5ccccc5)cc4)c4c(N)ncnc43)CC2)CC1` [Example 113, (4-(4-amino-7-((trans)-4-(4-methylpiperazin-1-yl)cyclohexyl)-7H-pyrrolo[2,3-d]pyrimidin-5-yl)phenyl)(phenyl)methanone], the IC50 was less than 50 nM.
Consider `CN1CCN([C@H]2CC[C@H](n3cc(-c4ccc(C(O)c5ccccc5)cc4)c4c(N)ncnc43)CC2)CC1` (stereo partly drawn) [Example 114, (4-(4-amino-7-((trans)-4-(4-methylpiperazin-1-yl)cyclohexyl)-7H-pyrrolo[2,3-d]pyrimidin-5-yl)phenyl)(phenyl)methanol], for which the IC50 was less than 50 nM.
With `CN1CCN([C@H]2CC[C@H](n3cc(-c4ccc(Cc5ccccc5)cc4)c4c(N)ncnc43)CC2)CC1` [Example 115, 5-(4-benzylphenyl)-7-((trans)-4-(4-methylpiperazin-1-yl)cyclohexyl)-7H-pyrrolo[2,3-d]pyrimidin-4-amine] the figure was less than 50 nM.
For `CN1CCN([C@H]2CC[C@H](n3cc(-c4ccc(Oc5cccnn5)cc4)c4c(N)ncnc43)CC2)CC1` [Example 116, 7-((trans)-4-(4-methylpiperazin-1-yl)cyclohexyl)-5-(4-(pyridazin-3-yloxy)phenyl)-7H-pyrrolo[2,3-d]pyrimidin-4-amine] the value was less than 50 nM; for `CCc1cc(NC(=O)Nc2ccc(-c3cn([C@H]4CC[C@H](N5CCN(C)CC5)CC4)c4ncnc(N)c34)cc2)no1` [Example 117, 1-(4-(4-amino-7-((trans)-4-(4-methylpiperazin-1-yl)cyclohexyl)-7H-pyrrolo[2,3-d]pyrimidin-5-yl)phenyl)-3-(5-ethylisoxazol-3-yl)urea], 50 to 250 nM.
With `CCc1cc(NC(=O)Nc2ccc(-c3cn([C@H]4CC[C@H](N5CCN(C)CC5)CC4)c4ncnc(N)c34)cc2)on1` [Example 118, 1-(4-(4-amino-7-((trans)-4-(4-methylpiperazin-1-yl)cyclohexyl)-7H-pyrrolo[2,3-d]pyrimidin-5-yl)phenyl)-3-(3-ethylisoxazol-5-yl)urea], the IC50 was in the range of 50 to 250 nM.
Consider `CC(C)c1cc(NC(=O)Nc2ccc(-c3cn([C@H]4CC[C@H](N5CCN(C)CC5)CC4)c4ncnc(N)c34)cc2)no1` [Example 119, 1-(4-(4-amino-7-((trans)-4-(4-methylpiperazin-1-yl)cyclohexyl)-7H-pyrrolo[2,3-d]pyrimidin-5-yl)phenyl)-3-(5-isopropylisoxazol-3-yl)urea], for which the IC50 is less than 50 nM.
For `CN1CCN([C@H]2CC[C@H](n3cc(-c4ccc(NC(=O)Nc5cc(C(C)(C)C)on5)cc4)c4c(N)ncnc43)CC2)CC1` [Example 120, 1-(4-(4-amino-7-((trans)-4-(4-methylpiperazin-1-yl)cyclohexyl)-7H-pyrrolo[2,3-d]pyrimidin-5-yl)phenyl)-3-(5-(tert-butyl)isoxazol-3-yl)urea] the value was less than 50 nM.

(Values after patent US11963960B2 (Flash Therapeutics, LLC, priority 2020, dated 2024).)
